From publication PMC7188855, “Nucleic acid recognition and antiviral activity of 1,4-substituted terphenyl compounds mimicking all faces of the HIV-1 Rev protein positively-charged α-helix” (Scientific Reports, 2020)
Where two headings read alike, the source gives them in different places.

Key:
[1] = target: RRE subdomain IIB RNA hairpin IIBh; assay: Fluorescence intensity binding to fluorescein-labelled IIBh hairpin; design: species or system HIV-1
From the text: We next determined whether the terphenyl molecules blocked the interaction between Rev34–50 and subdomain IIB by binding to the RNA and, if so, whether they recognized subdomain IIB in a manner similar to the Rev34–50 α-helix. We first evaluated subdomain IIB association by measuring changes in the fluorescence intensity of a IIBh RNA hairpin construct containing a fluorescein probe attached to unpaired loop IIB residue U23 (Fig. 1D)[21],[22]. […] However, there were significant differences among the compounds.
(§1) These experiments measured association to IIBh-23fl or TARh-8fl RNA molecules labelled with fluorescein at extrahelical loop nucleotides U23 and U8, respectively (Fig. 1D), and were carried out under two different ionic conditions in a Victor X5 plate reader, using excitation and emission wavelengths of 485 and 520 nm, respectively. We also attempted to measure association to an alternative IIBh hairpin containing 2-aminopurine instead of adenine at unpaired loop IIB residue A19[21], but all terphenyls fluoresced at the excitation wavelength of this fluorophore. IIBh-23fl or TARh-8fl (at 100 nM concentration) was equilibrated for 5 minutes after each ligand addition in a buffer containing either 10 mM sodium phosphate pH 6.6 and 0.1 mM EDTA or 10 mM HEPES pH 7.5, 200 mM KCl and 2 mM MgCl2. In addition to the TARh specificity control, the RNA and DNA specificity of the IIBh interactions was assessed by duplicating the experiments in the presence of a 10-fold molar excess (1 μM) of either tRNA^Lys or DNA duplex LTRd. The equilibrium dissociation constants Kd were determined by fitting the fluorescence intensity curves with DYNAFIT[40]. We used one-site, two independent-sites and two interacting-sites binding models for all curves, and the best model was automatically selected by model discrimination analysis, except where indicated. The final graphs were plotted with Prism. All fluorescence intensity experiments were performed at least two times for each compound and condition.

HIV-1 = assay: Cellular HIV-1 infection assay (NL4.3-Ren, MT-2 cells); format: cell-based; conditions: Human immunodeficiency virus 1, MT2, 48 h post-infection
Procedure: (§2) The methodology used to perform and analyse these experiments has been reported elsewhere[7],[21],[22]. Briefly, infectious supernatants were obtained from transfection of plasmid pNL4.3-Ren on 293 T cells, MT-2 cells were infected with these supernatants in the presence of the compounds, and anti-HIV activity quantification was performed 48 h post-infection by determining luciferase activity in cell lysates compared to a non-treated control (100%). Cellular viability was evaluated in mock infected cells similarly treated with the same concentrations of compounds using the CellTiterGlo (Promega) assay.

high-order RRE-Rev = assay: EMSA of full-length RRE-Rev ribonucleoprotein formation; format: binding, HIV-1; conditions: 78 nM RRE, 1.32 μM Rev, 300 mM KCl, 1 mM MgCl2, band of high-order complexes
From the text: After the high-affinity interaction between RRE subdomain IIB and the Rev34–50 helix of the first Rev monomer is established, the RRE-Rev ribonucleoprotein is formed by the incorporation of additional Rev units binding to further sites in the RRE (Fig. 3B, right)[9],[10],[13]. Using an electrophoretic mobility shift assay (EMSA) involving full-length RRE and Rev, we also evaluated whether 1,4-terphenyl compounds were capable of interfering with the formation of the ribonucleoprotein. […] The effect was particularly prominent for high-order complexes (containing a greater number of Rev monomers), but the inhibition of low-order complexes by 1d was also detected at concentrations consistent with the IC50 value measured in the IIB-Rev34–50 displacement experiment. Compounds 1b and 3c exerted a weaker effect on the RRE-Rev complex, in agreement with the results obtained in the displacement experiments monitored by fluorescence anisotropy (Fig. 3B and Table 1).
(§3) The experiments monitoring RRE-Rev inhibition utilized 78 nM full-length RRE and 1.32 μM full-length Rev dissolved in 10 mM HEPES pH 7.5, 300 mM KCl, 1 mM MgCl2 and 0.5 mM EDTA binding buffer, and increasing concentrations of each compound up to 50 μM[21],[39]. The reactions were incubated at room temperature for 20 minutes and loaded onto 8% polyacrylamide gels with TB running buffer. Gels were run at 4 °C for 1–4 hours at 150 V, and the bands were stained with SYBR gold and quantified with Quantity One 4.1 analysis software. Experiments monitoring binding to the 58-base pair HIV-1 LTRc core segment utilized 20 nM LTRc duplex dissolved in the same binding buffer, and increasing concentrations of each compound. The reactions were similarly incubated and loaded onto 20% polyacrylamide gels with TB running buffer. The gels were run at 4 °C for 3.5 hours at 150 V, and the bands were stained and quantified as described above. The specificity of LTRc association was evaluated by duplicating the experiments in the presence of a 100-fold molar excess of DNAd duplex (28-fold base-pair molar excess). In all cases, we monitored the disappearance of the band corresponding to high-order RRE-Rev complexes or free LTRc, and 50% response RC50 values were determined with Prism by fitting the data to a sigmoidal inhibitory model: I−Imin=ImaxC/1+C/RC50 where I is the intensity of the band corresponding to LTRc or high-order RRE-Rev species at compound concentration C, Imax the best-fit value for maximum intensity, and Imin the minimum intensity obtained at the highest concentration of inhibitor. All EMSA experiments were repeated three times for each compound.

[2] = Cellular viability (CellTiterGlo) in mock infected cells; format: cell-based; conditions: human, mock infected MT-2 cells
Procedure: as §2

[3] = target: RRE subdomain IIB-Rev34–50; assay: Fluorescence anisotropy displacement of the IIBh-Rev34–50 interaction; conditions: read-out: IC50, RRE subdomain IIB-Rev34–50, 60 nM IIBh, 10 nM frevp, 100 mM KCl, 20 mM NaCl, 2 mM MgCl2
Procedure: These experiments were conducted in a Victor X5 (PerkinElmer) plate reader as described before[7],[21], using 10 nM frevp and 60 nM IIBh. […] Each fluorescence anisotropy experiment was repeated at least two times.

[4] = target: TARh hairpin containing the HIV-1 Tat-binding UCU bulge; assay: Fluorescence intensity binding to control TARh hairpin
From the text: To evaluate the specificity of subdomain IIB recognition, we measured binding to a control TARh hairpin containing the HIV-1 Tat-binding UCU bulge[23] (Fig. 1D). […] We further assessed specificity by duplicating the IIBh-23fl association experiments in the presence of a 10-fold molar excess of tRNA^Lys or a 26-base pair LTRd DNA duplex. The binding curves of the compounds were affected by the presence of competitive tRNA^Lys and to a lesser extent by LTRd (Figs. 4A, S4 and S5 and Tables 2 and S2).
as §1

[5] = system: LTRc, core region of the HIV-1 LTR promoter; assay: EMSA of association to LTRc DNA; format: binding; conditions: 20 nM LTRc duplex; 10 mM HEPES pH 7.5, 300 mM KCl, 1 mM MgCl2, 0.5 mM EDTA
Procedure: as §3

[6] = low ionic strength, 10 mM sodium phosphate pH 6.6, uses Kd1
[7] = low ionic strength, 10 mM sodium phosphate pH 6.6, 0.1 mM EDTA, two-site model, read-out: Kd,1 first-site equilibrium dissociation constant (IIBh), Table S1
[8] = low ionic strength, 10 mM sodium phosphate pH 6.6, 0.1 mM EDTA, two-site model, read-out: Kd,2 second-site equilibrium dissociation constant (IIBh), Table S1

Row | Structure (SMILES) | Kd ([1]; 10 mM sodium phosphate pH 6.6, 0.1 mM EDTA, two-site model, read-out: Kd (IIBh), first-site Kd1) [µM] | Kd ([1]; 10 mM sodium phosphate pH 6.6, 0.1 mM EDTA, two-site model, read-out: Kd (IIBh), second-site Kd2 (in brackets)) [µM] | Kd ([1]; 10-fold molar excess DNA duplex LTRd, 10 mM sodium phosphate pH 6.6, 0.1 mM EDTA, one-site fit, approximate, read-out: Kd (IIBh+LTRd)) [µM] | Kd ([1]; 10-fold molar excess LTRd, 10 mM HEPES pH 7.5, 200 mM KCl, 2 mM MgCl2, read-out: Kd (IIBh+LTRd), one-site or first-site Kd1, Table S2) [µM] | Kd ([1]; 10-fold molar excess tRNALys, 10 mM HEPES pH 7.5, 200 mM KCl, 2 mM MgCl2, one-site fit, approximate, read-out: Kd (IIBh+tRNA), Table S2) [µM] | Kd ([1]; 10-fold molar excess tRNALys, 10 mM sodium phosphate pH 6.6, 0.1 mM EDTA, one-site fit, approximate, read-out: Kd (IIBh+tRNA)) [µM] | Kd ([1]; higher ionic strength, 10 mM HEPES pH 7.5, 200 mM KCl, 2 mM MgCl2, read-out: Kd (IIBh), first-site Kd1, Table S2) [µM] | IIB-DNA spec., Kd(IIBh)/Kd(IIBh+LTRd) [1, 6] | IIB-tRNA spec., Kd(IIBh)/Kd(IIBh+tRNA) [1, 6] | EC50 (HIV-1) [µM] | IC50 (high-order RRE-Rev) [µM] | CC50 at 48 h [2] [µM] | IC50 [3] [µM] | Kd ([4]; 10 mM sodium phosphate pH 6.6, 0.1 mM EDTA, read-out: Kd (TARh), one-site or first-site Kd1) [µM] | Kd ([4]; higher ionic strength, 10 mM HEPES pH 7.5, 200 mM KCl, 2 mM MgCl2, read-out: Kd (TARh), Table S2) [µM] | association to LTRc (EMSA) [5] | Kd [1, 7] [µM] | Kd [1, 8] [µM]
1 | CCc1cc(-c2cc(CCN)c(OC)cc2CCN)c(CC)cc1-c1cc(CCN)c(OC)cc1CCN [Compound 1b] | 0.51 | 21 | 6.5 | > 50 | > 50 | 8.7 | > 50 | 0.078 | 0.059 | > 100 | > 50 | > 100 | > 100 | > 50 | > 50 | not detected |  | 
2 | CCOc1cc(CCN)c(-c2cc(C)c(-c3cc(CCN)c(OCC)cc3CCN)cc2C)cc1CCN [Compound 1c] |  |  |  |  |  |  |  |  |  | > 100 |  | > 100 | > 100 |  |  |  | 0.19 | 74
3 | COc1cc(CCCN)c(-c2cc(C)c(-c3cc(CCCN)c(OC)cc3CCCN)cc2C)cc1CCCN [Compound 2a] |  |  |  |  |  |  |  |  |  | > 100 |  | > 100 | > 100 |  |  |  | 0.67 | 25
4 | CCc1cc(-c2cc(CCCN)c(OC)cc2CCCN)c(CC)cc1-c1cc(CCCN)c(OC)cc1CCCN [Compound 2b] |  |  |  |  |  |  |  |  |  | > 100 |  | > 100 | > 100 |  |  |  | 0.11 | 46
5 | COc1ccc(-c2cc(C)c(-c3cc(CCN)c(OC)cc3CCN)cc2C)cc1CCN [Compound 3a] |  |  |  |  |  |  |  |  |  | 35.5 |  | > 100 | > 100 |  |  |  | 8.9 | 36
6 | COc1ccc(-c2cc(C)c(-c3cc(CCN)ccc3CCN)cc2C)cc1CCN [Compound 3b] |  |  |  |  |  |  |  |  |  | > 100 |  | > 100 | > 100 |  |  |  | 5.5 | 22
7 | Cc1cc(-c2cc(CCN)ccc2CCN)c(C)cc1-c1ccccc1CCN [Compound 4] |  |  |  |  |  |  |  |  |  | 50 to 100 |  | > 100 | > 100 |  |  |  | 3.7 | 33
